Several values for one entry are separate records, joined by “and”; a condition that tells them apart may be missing. Identical values can stand only once. Like-named read-outs stand apart in the source and are kept apart here. Square brackets hold non-standard residues; d marks the D form. Peptide text beside a SMILES is read from it. * marks the point of attachment. ξ: configuration not given here. Biotin = O=C1N[C@H]2[C@H](CS[C@H]2CCCCC(=O)*)N1; ξGly(nC16H33) = CCCCCCCCCCCCCCCCC(N)C(=O)O; Palmitoyl = CCCCCCCCCCCCCCCC(=O)*; NHhexadecyl = CCCCCCCCCCCCCCCCN*

This experiment concerns the target CXCR4 (Homo sapiens, UniProt P61073). The experiment can be described thus: Chemotaxis assay, effect on SDF1-a (CXCL12) induced migration of CCRF-CEM cells. As to conditions: CEM cells; for activity at 1 µM / activity at 0.01 µM / activity at 0.03 µM / activity at 0.1 µM / activity at 0.3 µM / activity at 3 µM: CCRF-CEM. Details: a human T-cell ALL line that endogenously expresses CXCR4; endogenous in cells; host or cells: CCRF-CEM (human T-cell ALL line). The experiment is classed as cell-based.

Setting [1] is: Table 20, i3 loop, conc 1.0 uM, read-out: AUC (% of vehicle).
Where [2] appears, read: Table 20, i3 loop, conc 1.0 uM, read-out: Max (% of vehicle).
Setting [3] is: Table 20, i3 loop, conc 1.0 uM, peak test compound/peak control.
[4] abbreviates: Table 20, i3 loop, conc 0.01 uM.
The mark [5] stands for this setting: Table 20, i3 loop, conc 0.03 uM.
Setting [6] is: Table 18, i1 loop, drug conc 1.0 uM, read-out: AUC (% of).
Where [7] appears, read: Table 18, i1 loop, drug conc 1.0 uM, read-out: Max (% of).

Chain of CXCR4 (P61073 whole entry): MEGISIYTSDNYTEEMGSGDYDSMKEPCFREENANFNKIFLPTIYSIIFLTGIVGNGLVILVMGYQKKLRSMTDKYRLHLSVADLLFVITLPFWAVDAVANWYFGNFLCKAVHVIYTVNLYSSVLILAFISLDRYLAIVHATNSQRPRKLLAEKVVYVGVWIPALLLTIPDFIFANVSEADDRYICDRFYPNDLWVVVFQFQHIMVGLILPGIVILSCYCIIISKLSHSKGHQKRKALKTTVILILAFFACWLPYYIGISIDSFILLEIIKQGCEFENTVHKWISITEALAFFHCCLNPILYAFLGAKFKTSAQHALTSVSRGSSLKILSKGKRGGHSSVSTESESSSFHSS
From the text: Chemotaxis assays were utilized to determine the effect of compound on the directed migration of cells in response to chemokine. Cells that express a receptor of interest were placed in the upper chamber of a Transwell chemotaxis plate (Corning) and allowed to migrate through a polycarbonate membrane to a lower chamber containing the appropriate receptor-specific ligand. To test for antagonist or potentiating activity, cells were mixed with the desired concentration of compound prior to addition to the upper chamber. Conversely, agonist activity was determined by adding compound in the bottom chamber only without endogenous chemokine. The effect of compound is quantified by several parameters, including the extent of maximum response, the shift of agonist dose-response curves, and the area under the curve.
To measure the CXCR4-dependent migration of cells, the appropriate concentration of CXCL12 (SDF1a) or test compound was diluted in phenol red-free RMPI-1640/20 mM HEPES/0.5% BSA buffer and placed in the bottom chamber of a transwell apparatus. CCRF-CEM cells, a human T-cell ALL line that endogenously expresses CXCR4, were washed twice in buffer and resuspended at 133,000 cells/ml. A 75 μl sample of this suspension is mixed with the test compound of interest and placed in the upper chamber of a 5-micron transwell apparatus.
To initiate cell migration, the assembled transwell plate was placed in a 37° C., 0.5% CO2 incubator for a specified time interval, typically between 30 and 120 minutes. After incubation, the unit was disassembled and the lower chamber placed at −80° C. overnight to facilitate lysis of cells. To quantify migrated cells, plates were thawed at 37° C. in a humidified chamber, and then a sample volume was removed from each well and mixed with an equal volume of CyQuant (Invitrogen) working solution in opaque plates. The fluorescence intensity of each well represents the DNA content and is directly proportional to cell number. […] The plate background control, which included no cells in the upper chamber, was subtracted from all values.

As to `CCCCCCCCCCCCCCCC(=O)N[C@@H](CCCCN)C(=O)N[C@@H](CC(C)C)C(=O)N[C@@H](CO)C(=O)N[C@@H](Cc1cnc[nH]1)C(=O)N[C@@H](CO)C(=O)N[C@@H](CCCCN)C(=O)NCC(=O)N[C@@H](Cc1cnc[nH]1)C(=O)N[C@@H](CCC(N)=O)C(=O)N[C@@H](CCCCN)C(=O)N[C@@H](CCCNC(=N)N)C(=O)N[C@@H](CCCCN)C(=O)N[C@@H](C)C(N)=O` [Compound 94] (Palmitoyl-KLSHSKGHQKRKA-NH2), the activity at 1 µM amounted to 65.3% under setting [1] and 80.5% under setting [2]. In addition, the “Peak Test Compound” value (Table 20, i3 loop, conc 1.0 uM) was 1 nM. Also, the “Peak Ratio” value under setting [3] worked out at 1.

In the case of `CCCCCCCCCCCCCCCC(=O)N[C@@H](CCCCN)C(=O)N[C@@H](CC(C)C)C(=O)N[C@@H](CO)C(=O)N[C@@H](Cc1cnc[nH]1)C(=O)N[C@@H](CO)C(=O)N[C@@H](CCCCN)C(=O)NCC(=O)N[C@@H](Cc1cnc[nH]1)C(=O)N[C@@H](CCC(N)=O)C(=O)N[C@@H](CCCCN)C(=O)N[C@@H](CCCNC(=N)N)C(=O)N[C@@H](CCCCN)C(=O)N[C@@H](C)C(=O)N[C@@H](CC(C)C)C(=O)N[C@@H](CCCCN)C(N)=O` [Compound 92] (Palmitoyl-KLSHSKGHQKRKALK-NH2), the activity at 0.01 µM runs as follows: (Table 20, i3 loop, conc 0.01 uM, read-out: AUC (% of vehicle)) 158%; (Table 20, i3 loop, conc 0.01 uM, read-out: Max (% of vehicle)) 156%. The activity at 0.03 µM by setting is: (Table 20, i3 loop, conc 0.03 uM, read-out: AUC (% of vehicle)) 200%; (Table 20, i3 loop, conc 0.03 uM, read-out: Max (% of vehicle)) 198%. Also, the activity at 0.1 µM (Table 20, i3 loop, conc 0.1 uM, read-out: AUC (% of vehicle)) is 174% and the activity at 0.1 µM (Table 20, i3 loop, conc 0.1 uM, read-out: Max (% of vehicle)) is 169%. For the same molecule, the activity at 0.3 µM reads like this: (Table 20, i3 loop, conc 0.3 uM, read-out: AUC (% of vehicle)) 180%; (Table 20, i3 loop, conc 0.3 uM, read-out: Max (% of vehicle)) 165%. The activity at 3 µM is, setting by setting: (Table 20, i3 loop, conc 3.0 uM, read-out: AUC (% of vehicle)) 184%; (Table 20, i3 loop, conc 3.0 uM, read-out: Max (% of vehicle)) 176%. The “Peak Test Compound” value is, setting by setting: under setting [4], 0.16 nM; under setting [5], 0.16 nM; (Table 20, i3 loop, conc 0.1 uM) 0.16 nM; (Table 20, i3 loop, conc 0.3 uM) 0.16 nM; (Table 20, i3 loop, conc 1.0 uM) 0.2 nM and 0.16 nM; (Table 20, i3 loop, conc 3.0 uM) 0.8 nM. Besides, the “Peak Ratio” value runs as follows: (Table 20, i3 loop, conc 0.01 uM, peak test compound/peak control) 0.2; (Table 20, i3 loop, conc 0.03 uM, peak test compound/peak control) 0.2; (Table 20, i3 loop, conc 0.1 uM, peak test compound/peak control) 0.2; (Table 20, i3 loop, conc 0.3 uM, peak test compound/peak control) 0.2; under setting [3], 0.2; (Table 20, i3 loop, conc 3.0 uM, peak test compound/peak control) 1.

“101: CXCR4 i3 loop compound (SKLSHSKGHQKRKALK) [Compound 101]”: under “Table 20, i3 loop, conc 1.0 uM”, the “AUC (% of vehicle)” value is reported as 75.55 % of vehicle and the “Max (% of vehicle)” value is 74.92 % of vehicle.

Regarding `CCCCCCCCCCCCCCCCNC(=O)[C@H](CCCCN)NC(=O)[C@H](CC(=O)O)NC(=O)[C@@H](NC(=O)[C@H](CCSC)NC(=O)[C@H](CO)NC(=O)[C@H](CCCNC(=N)N)NC(=O)[C@H](CC(C)C)NC(=O)[C@H](CCCCN)NC(=O)[C@H](CCCCN)NC(=O)[C@H](CCC(N)=O)NC(=O)[C@H](Cc1ccc(O)cc1)NC(=O)CNC(=O)[C@H](CCSC)NC(C)=O)[C@@H](C)O` [Compound 59] (Ac-MGYQKKLRSMTDK-NHhexadecyl), under setting [6], the activity at 1 µM was determined as 51.6%.

Consider “110: CXCR4 i4 domain compound (GAKFKTSAQHALTSVSRGSSLKILSKGKRGGHSCFH) [Compound 110]”, for which, for the setting “Table 21, i4 loop, conc 1.0 uM”, the “AUC (% of vehicle)” value is recorded as 40.98 % of Vehicle and the “Max (% of vehicle)” value is recorded as 42.08 % of Vehicle.

On to “109: CXCR4 i4 domain compound (GAKFKTSAQHALTSVSRGSSLKILSKGKRGGHSSVST) [Compound 109]”, for which, under “Table 21, i4 loop, conc 1.0 uM”, the “AUC (% of vehicle)” value is reported as 49.31 % of Vehicle, the “Max (% of vehicle)” value is on record as 49.84 % of Vehicle and the “Peak Test Comp.” value is given as 0.2 nM.

For the molecule “102: CXCR4 i3 loop compound (IIISKLSHSKGHQKRKALKT) [Compound 102]”, under “Table 20, i3 loop, conc 1.0 uM”, the “AUC (% of vehicle)” value is recorded as 0 % of vehicle and the “Max (% of vehicle)” value was 0.24 % of vehicle.

For the molecule `CCCCCCCCCCCCCCCCC(NC(=O)CCCC[C@@H]1SC[C@@H]2NC(=O)N[C@@H]21)C(=O)N[C@@H](CCSC)C(=O)NCC(=O)N[C@@H](Cc1ccc(O)cc1)C(=O)N[C@@H](CCC(N)=O)C(=O)N[C@@H](CCCCN)C(=O)N[C@@H](CCCCN)C(=O)N[C@@H](CC(C)C)C(=O)N[C@@H](CCCNC(=N)N)C(=O)N[C@@H](CO)C(=O)N[C@@H](CCSC)C(=O)N[C@H](C(=O)N[C@@H](CC(=O)O)C(N)=O)[C@@H](C)O` (some centres unmarked) [Compound 33] (Biotin-[ξGly(nC16H33)]MGYQKKLRSMTD-NH2), the activity at 1 µM reads like this: under setting [6], 54.8%; under setting [7], 76.1%.

As for `CCCCCCCCCCCCCCCC(=O)N[C@@H](CO)C(=O)NCC(=O)N[C@@H](Cc1ccc(O)cc1)C(=O)N[C@@H](CCC(N)=O)C(=O)N[C@@H](CCCCN)C(=O)N[C@@H](CCCCN)C(=O)N[C@@H](CC(C)C)C(=O)N[C@@H](CCCNC(=N)N)C(=O)N[C@@H](CO)C(=O)N[C@@H](CO)C(=O)N[C@H](C(=O)N[C@@H](CC(=O)O)C(N)=O)[C@@H](C)O` [Compound 69] (Palmitoyl-SGYQKKLRSSTD-NH2), the activity at 1 µM by setting is: under setting [6], 100%; under setting [7], 93.1%. Also, the “Peak Test Comp.” value (Table 18, i1 loop, drug conc 1.0 uM) is reported as 25 nM. In addition, the “Peak Ratio” value (Table 18, i1 loop, drug conc 1.0 uM, peak test comp./peak control) turned out to be 1.

Take “Pal-KLSHSKGHQKRKALKTTV-amide (Palmitoyl-KLSHSKGHQKRKALKTTV-NH2; SMILES CCCCCCCCCCCCCCCC(=O)N[C@@H](CCCCN)C(=O)N[C@@H](CC(C)C)C(=O)N[C@@H](CO)C(=O)N[C@@H](Cc1c[nH]cn1)C(=O)N[C@@H](CO)C(=O)N[C@@H](CCCCN)C(=O)NCC(=O)N[C@@H](Cc1c[nH]cn1)C(=O)N[C@@H](CCC(N)=O)C(=O)N[C@@H](CCCCN)C(=O)N[C@@H](CCCNC(=N)N)C(=O)N[C@@H](CCCCN)C(=O)N[C@@H](C)C(=O)N[C@@H](CC(C)C)C(=O)N[C@@H](CCCCN)C(=O)N[C@H](C(=O)N[C@H](C(=O)N[C@H](C(N)=O)C(C)C)[C@@H](C)O)[C@@H](C)O) [Compound 90]”: the “AUC (% of vehicle)” value by setting is: under setting [4], 171.8 % of vehicle; under setting [5], 217.53 % of vehicle; (Table 20, i3 loop, conc 0.1 uM) 175.95 % of vehicle; (Table 20, i3 loop, conc 0.3 uM) 129.83 % of vehicle; (Table 20, i3 loop, conc 3.0 uM) 152.75 % of vehicle. In addition, the “Max (% of vehicle)” value by setting is: under setting [4], 156.08 % of vehicle; under setting [5], 202.16 % of vehicle; (Table 20, i3 loop, conc 0.1 uM) 157.79 % of vehicle; (Table 20, i3 loop, conc 0.3 uM) 113.68 % of vehicle; (Table 20, i3 loop, conc 1.0 uM) 131.59 % of vehicle and 76.8 % of vehicle; (Table 20, i3 loop, conc 3.0 uM) 114.49 % of vehicle. Also, the “Peak Test Compound” value worked out at 0.16 nM under setting [4]; 0.16 nM under setting [5]; 0.03 nM (Table 20, i3 loop, conc 0.1 uM); 0.16 nM (Table 20, i3 loop, conc 0.3 uM); 0.16 nM (Table 20, i3 loop, conc 1.0 uM); 0.16 nM (Table 20, i3 loop, conc 3.0 uM).

On to `CCCCCCCCCCCCCCCC(=O)N[C@@H](Cc1cnc[nH]1)C(=O)N[C@@H](CO)C(=O)N[C@@H](CCCCN)C(=O)NCC(=O)N[C@@H](Cc1cnc[nH]1)C(=O)N[C@@H](CCC(N)=O)C(=O)N[C@@H](CCCCN)C(=O)N[C@@H](CCCNC(=N)N)C(=O)N[C@@H](CCCCN)C(=O)N[C@@H](C)C(=O)N[C@@H](CC(C)C)C(=O)N[C@@H](CCCCN)C(=O)N[C@H](C(N)=O)[C@@H](C)O` [Compound 97] (Palmitoyl-HSKGHQKRKALKT-NH2), for which the activity at 1 µM under setting [1] was determined as 48.9% and the activity at 1 µM under setting [2] was 54.7%. For the same molecule, for the setting “Table 20, i3 loop, conc 1.0 uM”, the “Peak Test Compound” value is 1 nM. Besides, under setting [3], the “Peak Ratio” value is listed as 0.2.

With “116: CXCR4 i4 domain compound (GAKFKTSAQHALTSVR) [Compound 116]”, where the note is “Table 21, i4 loop, conc 1.0 uM”, the “AUC (% of vehicle)” value was 65.28 % of Vehicle and the “Max (% of vehicle)” value was 80.48 % of Vehicle.

The values are drawn from patent US9096646B2, “CXCR4 receptor compounds” (priority 2008, dated 2015).
